ChEMBL document CHEMBL3769362, “Thermodynamic profiling of inhibitors of Nrf2:Keap1 interactions” (Bioorg Med Chem Lett, 2016)
The source made the active and inactive calls. The calls are words filed in the database; no cut-off is given here.

What was measured:
[1] = molecular target: T1, Keap1/Nrf2 (Homo sapiens) (UniProt Q16236+Q14145); assay: Inhibition of Nrf2:Keap1 interaction (unknown origin) assessed as thermodynamic enthalpy changes by MR121 dye-labeled Nrf2-derived peptide based tracer displacement assay; assay type: protein assay
T1 sequence (Q14145 whole entry, looked up): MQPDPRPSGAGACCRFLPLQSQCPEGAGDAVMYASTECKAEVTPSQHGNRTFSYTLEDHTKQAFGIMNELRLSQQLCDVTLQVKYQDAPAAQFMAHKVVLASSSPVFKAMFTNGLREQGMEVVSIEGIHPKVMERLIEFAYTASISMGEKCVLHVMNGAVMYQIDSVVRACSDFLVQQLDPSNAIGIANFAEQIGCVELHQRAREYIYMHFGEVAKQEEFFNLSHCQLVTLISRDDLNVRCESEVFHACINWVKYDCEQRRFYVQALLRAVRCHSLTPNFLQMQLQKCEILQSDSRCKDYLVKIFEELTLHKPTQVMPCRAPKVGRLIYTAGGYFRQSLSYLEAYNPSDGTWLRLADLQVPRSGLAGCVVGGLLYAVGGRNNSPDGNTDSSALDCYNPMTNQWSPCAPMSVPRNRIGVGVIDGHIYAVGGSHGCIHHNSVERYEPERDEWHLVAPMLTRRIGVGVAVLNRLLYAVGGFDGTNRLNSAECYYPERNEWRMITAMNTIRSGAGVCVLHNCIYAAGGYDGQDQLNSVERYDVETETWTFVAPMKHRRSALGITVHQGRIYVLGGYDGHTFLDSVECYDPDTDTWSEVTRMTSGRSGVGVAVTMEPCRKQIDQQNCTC
T1 sequence (Q16236 whole entry, looked up): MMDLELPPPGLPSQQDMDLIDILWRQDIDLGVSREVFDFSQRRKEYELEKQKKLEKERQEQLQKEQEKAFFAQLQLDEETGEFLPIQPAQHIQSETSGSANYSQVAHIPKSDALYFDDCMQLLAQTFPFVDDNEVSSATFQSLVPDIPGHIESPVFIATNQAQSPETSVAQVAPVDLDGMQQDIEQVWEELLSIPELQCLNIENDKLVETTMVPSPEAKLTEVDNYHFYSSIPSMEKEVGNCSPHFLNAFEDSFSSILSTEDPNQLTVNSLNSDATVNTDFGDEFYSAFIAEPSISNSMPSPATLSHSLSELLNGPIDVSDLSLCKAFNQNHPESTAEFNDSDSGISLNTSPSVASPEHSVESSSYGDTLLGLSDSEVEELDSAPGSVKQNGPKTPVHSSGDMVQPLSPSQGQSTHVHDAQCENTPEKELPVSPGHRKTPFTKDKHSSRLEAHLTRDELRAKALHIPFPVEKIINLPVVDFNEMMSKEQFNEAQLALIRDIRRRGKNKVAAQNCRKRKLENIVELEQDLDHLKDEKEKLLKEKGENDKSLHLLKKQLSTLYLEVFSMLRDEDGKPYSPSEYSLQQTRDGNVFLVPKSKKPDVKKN

[2] = molecular target: T1, Keap1/Nrf2 (Homo sapiens); assay: Inhibition of Nrf2:Keap1 interaction (unknown origin) assessed as induction of negative TdeltaS values by MR121 dye-labeled Nrf2-derived peptide based tracer displacement assay; assay type: protein assay

SMILES | deltaG [1] | Activity [2]
COc1ccc(S(=O)(=O)Nc2ccc(NS(=O)(=O)c3ccc(OC)cc3)c3ccccc23)cc1 | -7.84 kcal/mol | Active
Cc1ccc(S(=O)(=O)C2CN=C(SCC(=O)Nc3ccccc3C(F)(F)F)NC2=O)c(C)c1 (centres undefined) | -5.93 kcal/mol | Active
